# Experimental data reported in US12498382B2, “Biomarkers for vitiligo” (INCYTE CORPORATION, priority 2019, dated 2025).
# Tested on: HaCaT cells
# Test: Normalized expression of target genes in HaCaT cells stimulated with TNFα and IFNγ in presence/absence of JAK inhibitors (QuantiGene Plex)
# Assay type: cell-based, human
# Conditions: TNFα+IFNγ 25 ng/mL
# Method: Transformed human keratinocyte (HaCaT) cells were purchased from AddexBio (Catalog #T0020001) and cultured as outlined in Example 5. […] After 48 hours, cell culture media was removed from 24 well plates and replaced with 250 uL of media containing serial diluted drug, then incubated for 15 minutes at 37° C./5% CO2. After drug incubation, 250 uL of combinatory stimulation containing Recombinant Human Interferon gamma (R&D Systems, Catalog #285-IF-100) and Recombinant Human Tumor Necrosis Factor alpha (R&D Systems, Catalog #210-TA-020) was added to plates. The final concentration of Recombinant Human Interferon gamma and Recombinant Human Tumor Necrosis Factor alpha was 25 ng/mL of each cytokine. Cytokine stimulation added to wells containing drug brought the final concentrations for each drug treatment to 25 nM, 50 nM, 100 nM, and 200 nM. Treated plates were mixed by gentle agitation for 30 seconds then incubated for 24 hours at 37° C./5% CO2. At the end of the 24 hour incubation media was immediately removed from each plate.
# RNA was isolated from HaCaT cells using the QuantiGene Plex Assay reagents and protocols (Affymetrix, Catalog #QGP-232-M18042302) according to the manufacturer's guidelines. Cells were washed with 1×DPBS then lysed by incubation with provided QuantiGene lysis buffer for 30 minutes at 50-55° C. Cell lysates were incubated for 18-24 hours at 55° C. with capture beads and probe set designed to specifically hybridize to mRNA from targets of interest. Genes included housekeeping genes (e.g., HPRT1 and GAPDH) used for the normalization of the results. After the 18-24 hour incubation signal was amplified utilizing branched DNA methodologies, according to the manufacturer's procedures (Affymetrix, Catalog #QGP-232-M18042302). After hybridization and wash steps assay plate was read on the Luminex 200 and data were expressed as Net Median Fluorescence Intensity. Data was then normalized to the Net Median Fluorescence Intensity of the housekeeping gene HPRT1 (Table 14).
structure (smiles),measurement,setting,value
"N#CCC1(n2cc(-c3ncnc4[nH]ccc34)cn2)CN(C2CCN(C(=O)c3ccnc(C(F)(F)F)c3F)CC2)C1 [Cpd B, {1-{1-[3-fluoro-2-(trifluoromethyl)isonicotinoyl]piperidin-4-yl}-3[4-(7H-pyrrolo[2,3-d]pyrimidin-4-yl)-1H-pyrazol-1-yl]azetidin-3-yl}acetonitrile]",AREG normalized expression MFI,Drug Conc 25 nM,737.85 ± 22.1
same,CCL17 normalized expression MFI,Drug Conc 25 nM,3.37 ± 0.54
same,CCL18 normalized expression MFI,Drug Conc 25 nM,2.12 ± 0.32
same,FLG normalized expression MFI,Drug Conc 25 nM,71.57 ± 9.14
same,IL6 normalized expression MFI,Drug Conc 25 nM,130.24 ± 3.84
same,IL8 normalized expression MFI,Drug Conc 25 nM,381.74 ± 10.25
same,IL17A normalized expression MFI,Drug Conc 25 nM,0.88 ± 0.13
same,IL22 normalized expression MFI,Drug Conc 25 nM,1.21 ± 0.24
same,IL23A normalized expression MFI,Drug Conc 25 nM,43.92 ± 1.89
same,IL31 normalized expression MFI,Drug Conc 25 nM,1.33 ± 0.33
same,ILIA normalized expression MFI,Drug Conc 25 nM,1288.02 ± 20
same,IYK2 normalized expression MFI,Drug Conc 25 nM,292.92 ± 7.99
same,JAK1 normalized expression MFI,Drug Conc 25 nM,216.23 ± 6.41
same,JAK2 normalized expression MFI,Drug Conc 25 nM,109.39 ± 2.8
same,JAK3 normalized expression MFI,Drug Conc 25 nM,0.84 ± 0.12
same,LOR normalized expression MFI,Drug Conc 25 nM,43.2 ± 14.11
same,S100A7 normalized expression MFI,Drug Conc 25 nM,5.45 ± 1.02
same,S100A12 normalized expression MFI,Drug Conc 25 nM,1.21 ± 0.16
same,SERPINB3 normalized expression MFI,Drug Conc 25 nM,3.16 ± 0.43
same,SERPINB4 normalized expression MFI,Drug Conc 25 nM,4.23 ± 0.7
same,STAT1 normalized expression MFI,Drug Conc 25 nM,2861.37 ± 204.56
same,STAT3 normalized expression MFI,Drug Conc 25 nM,1466.73 ± 66.75
same,STAT4 normalized expression MFI,Drug Conc 25 nM,6 ± 0.46
same,STAT5A normalized expression MFI,Drug Conc 25 nM,23.69 ± 1.63
same,STAT5B normalized expression MFI,Drug Conc 25 nM,40.74 ± 2.3
same,STAT6 normalized expression MFI,Drug Conc 25 nM,1004.82 ± 23.76
same,TNF normalized expression MFI,Drug Conc 25 nM,28.04 ± 1.24
same,VEGFA normalized expression MFI,Drug Conc 25 nM,553.23 ± 11.38
same,AREG normalized expression MFI,Drug Conc 50 nM,701.57 ± 12.75
same,CCL17 normalized expression MFI,Drug Conc 50 nM,3.06 ± 0.34
same,CCL18 normalized expression MFI,Drug Conc 50 nM,2.2 ± 0.35
same,FLG normalized expression MFI,Drug Conc 50 nM,74.31 ± 8.77
same,IL6 normalized expression MFI,Drug Conc 50 nM,122.69 ± 4.36
same,IL8 normalized expression MFI,Drug Conc 50 nM,376.41 ± 13.16
same,IL17A normalized expression MFI,Drug Conc 50 nM,0.92 ± 0.14
same,IL22 normalized expression MFI,Drug Conc 50 nM,1.15 ± 0.18
same,IL23A normalized expression MFI,Drug Conc 50 nM,45.85 ± 2.3
same,IL31 normalized expression MFI,Drug Conc 50 nM,1.22 ± 0.29
same,ILIA normalized expression MFI,Drug Conc 50 nM,1258.76 ± 23.63
same,IYK2 normalized expression MFI,Drug Conc 50 nM,287.31 ± 11.08
same,JAK1 normalized expression MFI,Drug Conc 50 nM,210.42 ± 10.89
same,JAK2 normalized expression MFI,Drug Conc 50 nM,101 ± 2.26
same,JAK3 normalized expression MFI,Drug Conc 50 nM,0.83 ± 0.15
same,LOR normalized expression MFI,Drug Conc 50 nM,43.96 ± 15.87
same,S100A7 normalized expression MFI,Drug Conc 50 nM,7.08 ± 1.99
same,S100A12 normalized expression MFI,Drug Conc 50 nM,1.04 ± 0.15
same,SERPINB3 normalized expression MFI,Drug Conc 50 nM,2.3 ± 0.34
same,SERPINB4 normalized expression MFI,Drug Conc 50 nM,3.76 ± 0.66
same,STAT1 normalized expression MFI,Drug Conc 50 nM,2855.28 ± 166.89
same,STAT3 normalized expression MFI,Drug Conc 50 nM,1437.28 ± 60.69
same,STAT4 normalized expression MFI,Drug Conc 50 nM,6.22 ± 0.42
same,STAT5A normalized expression MFI,Drug Conc 50 nM,22.32 ± 2.16
same,STAT5B normalized expression MFI,Drug Conc 50 nM,42.9 ± 2.44
same,STAT6 normalized expression MFI,Drug Conc 50 nM,990.05 ± 21.06
same,TNF normalized expression MFI,Drug Conc 50 nM,28.66 ± 2.58
same,VEGFA normalized expression MFI,Drug Conc 50 nM,545.93 ± 9.71
same,AREG normalized expression MFI,Drug Conc 100 nM,731.24 ± 25.4
same,CCL17 normalized expression MFI,Drug Conc 100 nM,2.87 ± 0.33
same,CCL18 normalized expression MFI,Drug Conc 100 nM,2.01 ± 0.44
same,FLG normalized expression MFI,Drug Conc 100 nM,74.99 ± 8.16
same,IL6 normalized expression MFI,Drug Conc 100 nM,111.07 ± 4.74
same,IL8 normalized expression MFI,Drug Conc 100 nM,387.33 ± 19.5
same,IL17A normalized expression MFI,Drug Conc 100 nM,0.85 ± 0.15
same,IL22 normalized expression MFI,Drug Conc 100 nM,1 ± 0.17
same,IL23A normalized expression MFI,Drug Conc 100 nM,53.05 ± 3.22
same,IL31 normalized expression MFI,Drug Conc 100 nM,1.04 ± 0.31
same,ILIA normalized expression MFI,Drug Conc 100 nM,1162.35 ± 23.34
same,IYK2 normalized expression MFI,Drug Conc 100 nM,284.15 ± 9.62
same,JAK1 normalized expression MFI,Drug Conc 100 nM,205.03 ± 11.49
same,JAK2 normalized expression MFI,Drug Conc 100 nM,94.5 ± 2.65
